Reference: ChEMBL document CHEMBL5625252, “Synthesis of peptidomimetics as antibiotic adjuvants for combination with aztreonam to combat MDR Pseudomonas aeruginosa” (Eur J Med Chem, 2023)
Converted amounts (≈) assume the structure as drawn. The source made the active and inactive calls. The rule behind the calls is not given here.

Experiments:
Pseudomonas aeruginosa [1] = assay: Antibacterial activity against Pseudomonas aeruginosa PAO1 assessed as inhibition of bacterial growth incubated for 18 hrs by agar dilution method; format: functional
Pseudomonas aeruginosa [2] = assay: Antibacterial activity against Pseudomonas aeruginosa 16-11 assessed as inhibition of bacterial growth incubated for 18 hrs by agar dilution method; format: functional
Pseudomonas aeruginosa [3] = assay: Antibacterial activity against Pseudomonas aeruginosa 21-8 assessed as inhibition of bacterial growth incubated for 18 hrs by agar dilution method; format: functional
Pseudomonas aeruginosa [4] = assay: Antibacterial activity against Pseudomonas aeruginosa 13-35 assessed as inhibition of bacterial growth incubated for 18 hrs by agar dilution method; format: functional
Pseudomonas aeruginosa [5] = assay: Antibacterial activity against Pseudomonas aeruginosa 23-Y122 assessed as inhibition of bacterial growth incubated for 18 hrs by agar dilution method; format: functional
Pseudomonas aeruginosa [6] = assay: Antibacterial activity against Pseudomonas aeruginosa 23-Y372 assessed as inhibition of bacterial growth incubated for 18 hrs by agar dilution method; format: functional
Pseudomonas aeruginosa [7] = assay: Antibacterial activity against Pseudomonas aeruginosa 23-Y417 assessed as inhibition of bacterial growth incubated for 18 hrs by agar dilution method; format: functional; details: read-out: MIC
Pseudomonas aeruginosa [8] = assay: Antibacterial activity against Pseudomonas aeruginosa 23-Y511 assessed as inhibition of bacterial growth incubated for 18 hrs by agar dilution method; format: functional
Pseudomonas aeruginosa [9] = assay: Antibacterial activity against Pseudomonas aeruginosa 12-1 assessed as inhibition of bacterial growth incubated for 18 hrs by agar dilution method; format: functional
Pseudomonas aeruginosa [10] = assay: Antibacterial activity against Pseudomonas aeruginosa 13-3 assessed as inhibition of bacterial growth incubated for 18 hrs by agar dilution method; format: functional
Pseudomonas aeruginosa [11] = assay: Antibacterial activity against Pseudomonas aeruginosa 13-17 assessed as inhibition of bacterial growth incubated for 18 hrs by agar dilution method; format: functional
Pseudomonas aeruginosa [12] = assay: Antibacterial activity against Pseudomonas aeruginosa 16-2 assessed as inhibition of bacterial growth incubated for 18 hrs by agar dilution method; format: functional
Pseudomonas aeruginosa [13] = assay: Antibacterial activity against Pseudomonas aeruginosa 21-2 assessed as inhibition of bacterial growth incubated for 18 hrs by agar dilution method; format: functional
Pseudomonas aeruginosa [14] = assay: Antibacterial activity against Pseudomonas aeruginosa 23-Y539 assessed as inhibition of bacterial growth incubated for 18 hrs by agar dilution method; format: functional
Pseudomonas aeruginosa [15] = assay: Antibacterial activity against Pseudomonas aeruginosa 19-46 assessed as inhibition of bacterial growth incubated for 18 hrs by agar dilution method; format: functional
Pseudomonas aeruginosa [16] = assay: Antibacterial activity against Pseudomonas aeruginosa 19-55 assessed as inhibition of bacterial growth incubated for 18 hrs by agar dilution method; format: functional
Pseudomonas aeruginosa [17] = assay: Antibacterial activity against Pseudomonas aeruginosa 21-7 assessed as inhibition of bacterial growth incubated for 18 hrs by agar dilution method; format: functional
Pseudomonas aeruginosa [18] = assay: Antibacterial activity against Pseudomonas aeruginosa 23-Y364 assessed as inhibition of bacterial growth incubated for 18 hrs by agar dilution method; format: functional
Pseudomonas aeruginosa [19] = assay: Antibacterial activity against Pseudomonas aeruginosa 16-11 in CAMH broth medium supplemented with 0.41 to 0.51 mM Mg2+ by checkerboard assay; format: functional
Escherichia coli [20] = assay: Antibacterial activity against ESBLs (-) Escherichia coli ATCC 25922 assessed as inhibition of bacterial growth incubated for 18 hrs by agar dilution method; format: functional
Escherichia coli [21] = assay: Antibacterial activity against NDM-1 (+) Escherichia coli CDC 1001728 assessed as inhibition of bacterial growth incubated for 18 hrs by agar dilution method; format: functional
Escherichia coli [22] = assay: Antibacterial activity against ESBLs (+) Escherichia coli 16-1 assessed as inhibition of bacterial growth incubated for 18 hrs by agar dilution method; format: functional
Escherichia coli [23] = assay: Antibacterial activity against mcr-1 (+) Escherichia coli 08-85 assessed as inhibition of bacterial growth incubated for 18 hrs by agar dilution method; format: functional
Klebsiella pneumoniae [24] = assay: Antibacterial activity against ESBLs (+) Klebsiella pneumoniae ATCC 700603 assessed as inhibition of bacterial growth incubated for 18 hrs by agar dilution method; format: functional
Klebsiella pneumoniae [25] = assay: Antibacterial activity against NDM-1 (+) Klebsiella pneumoniae 2146 assessed as inhibition of bacterial growth incubated for 18 hrs by agar dilution method; format: functional
Klebsiella pneumoniae [26] = assay: Antibacterial activity against ESBLs (+) Klebsiella pneumoniae 16-14 assessed as inhibition of bacterial growth incubated for 18 hrs by agar dilution method; format: functional
Klebsiella pneumoniae [27] = assay: Antibacterial activity against NDM-1 (+) Klebsiella pneumoniae 09-20 assessed as inhibition of bacterial growth incubated for 18 hrs by agar dilution method; format: functional
Pseudomonas aeruginosa [28] = assay: Antibacterial activity against BL (+) Pseudomonas aeruginosa ATCC 27853 assessed as inhibition of bacterial growth incubated for 18 hrs by agar dilution method; format: functional
Pseudomonas aeruginosa [29] = assay: Antibacterial activity against Pseudomonas aeruginosa PAO1 at 2 ug/ml measured upto 24 hrs by time-kill assay; format: functional, organism-based; details: dose 2.0 µg/ml
Pseudomonas aeruginosa [30] = assay: Antibacterial activity against Pseudomonas aeruginosa 16-2 at 16 ug/ml measured upto 24 hrs by time-kill assay; format: functional, organism-based; details: dose 16.0 µg/ml
Pseudomonas aeruginosa [31] = assay: Antibacterial activity against Pseudomonas aeruginosa PAO1 infected in Galleria mellonella assessed as increase in larvae survival at 25 mg/kg measured every 12 hrs; format: functional, organism-based
Pseudomonas aeruginosa [32] = assay: Antibacterial activity against Pseudomonas aeruginosa 16-2 infected in Galleria mellonella assessed as larvae survival rate at 50 mg/kg after 96 hrs of innoculation; format: functional
Pseudomonas aeruginosa [33] = assay: Antibacterial activity against Pseudomonas aeruginosa PAO1 in CAMH broth medium supplemented with 0.41 to 0.51 mM Mg2+ by checkerboard assay; format: functional
Pseudomonas aeruginosa [34] = assay: Antibacterial activity against Pseudomonas aeruginosa 13-35 in CAMH broth medium supplemented with 0.41 to 0.51 mM Mg2+ by checkerboard assay; format: functional
Pseudomonas aeruginosa [35] = assay: Antibacterial activity against Pseudomonas aeruginosa 12-1 in CAMH broth medium supplemented with 0.41 to 0.51 mM Mg2+ by checkerboard assay; format: functional
Pseudomonas aeruginosa [36] = assay: Antibacterial activity against Pseudomonas aeruginosa PAO1 in CAMH broth medium supplemented with 20.99 to 21.09 mM Mg2+ by checkerboard assay; format: functional
Pseudomonas aeruginosa [37] = assay: Antibacterial activity against Pseudomonas aeruginosa 16-11 in CAMH broth medium supplemented with 20.99 to 21.09 mM Mg2+ by checkerboard assay; format: functional
Pseudomonas aeruginosa [38] = assay: Antibacterial activity against Pseudomonas aeruginosa 13-35 in CAMH broth medium supplemented with 20.99 to 21.09 mM Mg2+ by checkerboard assay; format: functional
Pseudomonas aeruginosa [39] = assay: Antibacterial activity against Pseudomonas aeruginosa 12-1 in CAMH broth medium supplemented with 20.99 to 21.09 mM Mg2+ by checkerboard assay; format: functional

C[C@@H](O)[C@H]1C(=O)N2C(C(=O)O)=C(SCCNC=N)C[C@H]12 [IMIPENEM ANHYDROUS]
MIC (Pseudomonas aeruginosa [1]): 8 µg/mL (≈ 26.7 µM) | MIC (Pseudomonas aeruginosa [2]): 1 µg/mL (≈ 3.34 µM) | MIC (Pseudomonas aeruginosa [3]): 1 µg/mL (≈ 3.34 µM) | MIC (Pseudomonas aeruginosa [4]): 32 µg/mL (≈ 107 µM) | MIC (Pseudomonas aeruginosa [5]): 4 µg/mL (≈ 13.4 µM) | MIC (Pseudomonas aeruginosa [6]): 128 µg/mL (≈ 428 µM) | MIC (Pseudomonas aeruginosa [7]): 16 µg/mL (≈ 53.4 µM) | MIC (Pseudomonas aeruginosa [8]): 0.5 µg/mL (≈ 1.67 µM) | MIC (Pseudomonas aeruginosa [9]): 64 µg/mL (≈ 214 µM) | MIC (Pseudomonas aeruginosa [10]): 64 µg/mL (≈ 214 µM) | MIC (Pseudomonas aeruginosa [11]): 32 µg/mL (≈ 107 µM) | MIC (Pseudomonas aeruginosa [12]): 32 µg/mL (≈ 107 µM) | MIC (Pseudomonas aeruginosa [13]): 16 µg/mL (≈ 53.4 µM) | MIC (Pseudomonas aeruginosa [14]): 8 µg/mL (≈ 26.7 µM) | MIC (Pseudomonas aeruginosa [15]): 32 µg/mL (≈ 107 µM) | MIC (Pseudomonas aeruginosa [16]): 32 µg/mL (≈ 107 µM) | MIC (Pseudomonas aeruginosa [17]): 16 µg/mL (≈ 53.4 µM) | MIC (Pseudomonas aeruginosa [18]): 16 µg/mL (≈ 53.4 µM)

C[C@H]1[C@H](NC(=O)/C(=N\OC(C)(C)C(=O)O)c2csc(N)n2)C(=O)N1S(=O)(=O)O [AZTREONAM]
MIC (Pseudomonas aeruginosa [19]): 8 µg/mL | MIC (Escherichia coli [20]): 0.06 µg/mL (≈ 0.138 µM) | MIC (Escherichia coli [21]): 4 µg/mL (≈ 9.19 µM) | MIC (Escherichia coli [22]): ≤ 0.03 µg/mL | MIC (Escherichia coli [23]): 4 µg/mL (≈ 9.19 µM) | MIC (Klebsiella pneumoniae [24]): 32 µg/mL (≈ 73.5 µM) | MIC (Klebsiella pneumoniae [25]): > 128 µg/mL | MIC (Klebsiella pneumoniae [26]): 4 µg/mL (≈ 9.19 µM) | MIC (Klebsiella pneumoniae [27]): 0.25 µg/mL (≈ 0.574 µM) | MIC (Pseudomonas aeruginosa [28]): 4 µg/mL (≈ 9.19 µM) | MIC (Pseudomonas aeruginosa [1]): 8 µg/mL (≈ 18.4 µM) | MIC (Pseudomonas aeruginosa [2]): 8 µg/mL (≈ 18.4 µM) | MIC (Pseudomonas aeruginosa [4]): 32 µg/mL (≈ 73.5 µM) | MIC (Pseudomonas aeruginosa [5]): 32 µg/mL (≈ 73.5 µM) | MIC (Pseudomonas aeruginosa [6]): 32 µg/mL (≈ 73.5 µM) | MIC (Pseudomonas aeruginosa [8]): 32 µg/mL (≈ 73.5 µM) | MIC (Pseudomonas aeruginosa [9]): 64 µg/mL (≈ 147 µM) | MIC (Pseudomonas aeruginosa [10]): 64 µg/mL (≈ 147 µM) | MIC (Pseudomonas aeruginosa [11]): 64 µg/mL (≈ 147 µM) | MIC (Pseudomonas aeruginosa [13]): 64 µg/mL (≈ 147 µM) | MIC (Pseudomonas aeruginosa [14]): 64 µg/mL (≈ 147 µM) | MIC (Pseudomonas aeruginosa [15]): 128 µg/mL (≈ 294 µM) | MIC (Pseudomonas aeruginosa [16]): 128 µg/mL (≈ 294 µM) | MIC (Pseudomonas aeruginosa [17]): > 256 µg/mL | MIC (Pseudomonas aeruginosa [18]): > 256 µg/mL | Activity (Pseudomonas aeruginosa [29]): inactive | Activity (Pseudomonas aeruginosa [30]): inactive | Activity (Pseudomonas aeruginosa [31]): inactive | Activity (Pseudomonas aeruginosa [32]): 30% | MIC (Pseudomonas aeruginosa [33]): 8 µg/mL | MIC (Pseudomonas aeruginosa [34]): 32 µg/mL | MIC (Pseudomonas aeruginosa [35]): 64 µg/mL | MIC (Pseudomonas aeruginosa [36]): 8 µg/mL | MIC (Pseudomonas aeruginosa [37]): 8 µg/mL | MIC (Pseudomonas aeruginosa [38]): 32 µg/mL | MIC (Pseudomonas aeruginosa [39]): 64 µg/mL

C[C@@H](O)[C@H]1C(=O)N2C(C(=O)O)=C(S[C@@H]3CN[C@H](C(=O)N(C)C)C3)[C@H](C)[C@H]12 [MEROPENEM]
MIC (Pseudomonas aeruginosa [1]): 2 µg/mL (≈ 5.22 µM) | MIC (Pseudomonas aeruginosa [2]): 1 µg/mL (≈ 2.61 µM) | MIC (Pseudomonas aeruginosa [3]): 0.5 µg/mL (≈ 1.3 µM) | MIC (Pseudomonas aeruginosa [4]): 32 µg/mL (≈ 83.4 µM) | MIC (Pseudomonas aeruginosa [5]): 128 µg/mL (≈ 334 µM) | MIC (Pseudomonas aeruginosa [6]): > 256 µg/mL | MIC (Pseudomonas aeruginosa [7]): 16 µg/mL (≈ 41.7 µM) | MIC (Pseudomonas aeruginosa [8]): 0.125 µg/mL (≈ 0.326 µM) | MIC (Pseudomonas aeruginosa [9]): 16 µg/mL (≈ 41.7 µM) | MIC (Pseudomonas aeruginosa [10]): 32 µg/mL (≈ 83.4 µM) | MIC (Pseudomonas aeruginosa [11]): 32 µg/mL (≈ 83.4 µM) | MIC (Pseudomonas aeruginosa [12]): 16 µg/mL (≈ 41.7 µM) | MIC (Pseudomonas aeruginosa [13]): 16 µg/mL (≈ 41.7 µM) | MIC (Pseudomonas aeruginosa [14]): 1 µg/mL (≈ 2.61 µM) | MIC (Pseudomonas aeruginosa [15]): 128 µg/mL (≈ 334 µM) | MIC (Pseudomonas aeruginosa [16]): 128 µg/mL (≈ 334 µM) | MIC (Pseudomonas aeruginosa [17]): 16 µg/mL (≈ 41.7 µM) | MIC (Pseudomonas aeruginosa [18]): 2 µg/mL (≈ 5.22 µM)
